Results on 74 compounds are retold here after patent publication US8232406B2, “c-MET protein kinase inhibitors” (Vertex Pharmaceuticals Incorporated, priority 2006, dated 2012).

The term Ki denotes the equilibrium dissociation constant of an inhibitor or competing ligand from its target.

A value given as a limit tells only on which side of the number the result lay.

Sequence of c-MET (P08581 25-1390): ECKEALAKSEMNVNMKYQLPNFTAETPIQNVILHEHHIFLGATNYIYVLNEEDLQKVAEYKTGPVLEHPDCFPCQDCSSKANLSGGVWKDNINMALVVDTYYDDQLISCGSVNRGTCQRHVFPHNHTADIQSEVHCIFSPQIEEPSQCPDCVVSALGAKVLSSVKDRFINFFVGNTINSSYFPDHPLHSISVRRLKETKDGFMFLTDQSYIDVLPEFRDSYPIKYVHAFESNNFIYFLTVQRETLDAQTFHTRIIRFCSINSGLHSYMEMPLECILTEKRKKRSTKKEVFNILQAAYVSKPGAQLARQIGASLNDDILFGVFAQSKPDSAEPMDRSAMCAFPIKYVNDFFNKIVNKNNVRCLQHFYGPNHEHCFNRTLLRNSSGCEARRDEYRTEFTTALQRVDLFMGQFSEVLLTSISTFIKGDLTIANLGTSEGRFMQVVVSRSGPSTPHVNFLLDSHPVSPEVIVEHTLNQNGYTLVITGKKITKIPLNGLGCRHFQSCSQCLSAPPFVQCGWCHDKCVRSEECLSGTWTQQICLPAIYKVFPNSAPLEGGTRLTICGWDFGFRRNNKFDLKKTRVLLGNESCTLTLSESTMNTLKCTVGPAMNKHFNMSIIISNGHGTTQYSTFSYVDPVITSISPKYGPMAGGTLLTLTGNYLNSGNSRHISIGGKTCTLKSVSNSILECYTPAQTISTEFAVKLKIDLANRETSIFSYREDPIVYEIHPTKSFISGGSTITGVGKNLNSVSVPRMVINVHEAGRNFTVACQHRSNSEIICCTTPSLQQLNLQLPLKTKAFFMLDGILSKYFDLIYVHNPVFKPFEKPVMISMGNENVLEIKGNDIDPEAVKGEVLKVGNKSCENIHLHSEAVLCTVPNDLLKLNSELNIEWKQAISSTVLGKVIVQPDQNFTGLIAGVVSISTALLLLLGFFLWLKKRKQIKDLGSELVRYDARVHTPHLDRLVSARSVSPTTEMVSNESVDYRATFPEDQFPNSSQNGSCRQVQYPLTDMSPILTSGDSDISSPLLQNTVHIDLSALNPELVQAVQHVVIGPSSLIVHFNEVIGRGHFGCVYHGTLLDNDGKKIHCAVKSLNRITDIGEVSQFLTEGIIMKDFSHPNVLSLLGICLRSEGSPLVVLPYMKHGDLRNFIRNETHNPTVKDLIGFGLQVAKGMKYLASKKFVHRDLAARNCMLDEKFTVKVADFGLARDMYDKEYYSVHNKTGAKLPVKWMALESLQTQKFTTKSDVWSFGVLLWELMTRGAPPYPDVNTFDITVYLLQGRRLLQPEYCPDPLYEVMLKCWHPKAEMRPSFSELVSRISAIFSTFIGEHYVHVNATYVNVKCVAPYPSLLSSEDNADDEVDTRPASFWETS

The test addresses c-MET (Homo sapiens, UniProt P08581). The experiment in a line: Ki determination for the inhibition of c-MET (standard radiometric 33P-ATP kinase assay, polyE4Y substrate). Type of test: biochemical. Conditions: 1.0 nM c-Met, 35 μM ATP, 0.5 mg/mL polyE4Y, 20 min; competitive tight-binding fit. An outline of the steps:
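Radiometric assay of 33P transfer from 33P-ATP (35 μM) to polyE4Y (0.5 mg/mL) by 1.0 nM c-Met in 100 mM HEPES pH 7.5, 10 mM MgCl2, 25 mM NaCl, 0.01% BSA, 1 mM DTT. TCA-quenched after 20 min, filter-captured, scintillation-counted; Ki fitted to a competitive tight-binding model.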
With `CC(=O)Nc1ccc(-c2cnc(N)c(-c3nnnn3-c3cccc(Cl)c3Cl)c2)cc1` [I-A-81], the inhibition constant Ki was ≤ 100 nM.

On to `CN1CCN(c2ccc(-c3cnc(N)c(-c4nccn4-c4cccc(Cl)c4Cl)c3)cc2)CC1` [I-A-402], for which the inhibition constant (Ki) fell in the range of 100 to 1000 nM.

With `Nc1ncc(-c2ccc(CN3CCCC3)cc2)cc1-c1nnnn1-c1cccc(Cl)c1` [I-A-356], the Ki fell in the range of 100 to 1000 nM.

Consider `Nc1ncc(C2=CCN(C(=O)C3CCOCC3)CC2)cc1-c1nnnn1-c1cccc(F)c1F` [I-A-521], for which the Ki is ≤ 100 nM.

Take `Nc1ncc(-c2ccc(CN3CCCC3)cc2)cc1-c1nc2cnccc2n1-c1cccc(F)c1F` [I-D-3]: the Ki is ≤ 100 nM.

`Nc1ncc(-c2cnc3[nH]ccc3c2)nc1-c1nncn1-c1cccc(F)c1F` [I-A-13]: the Ki was ≤ 100 nM.

`Cn1cc(-c2cnc(N)c(-c3nnnn3-c3cccc(F)c3F)c2)cn1` [I-A-249]: the Ki is ≤ 100 nM.

As for `CN(C)Cc1cccc(-c2cnc(N)c(-c3nnnn3-c3cccc(Cl)c3Cl)c2)c1` [I-A-123], the Ki was ≤ 100 nM.

With `CC(=O)Nc1ccc(-c2cnc(N)c(-c3nncn3-c3cccc(F)c3F)n2)cc1` [I-A-11], the inhibitory constant (Ki) was ≤ 100 nM.

Regarding `CC(=O)N1CCC(n2cc(-c3cnc(N)c(-c4nncn4-c4cccc(Cl)c4F)c3)cn2)CC1` [I-A-450], the Ki was ≤ 100 nM.

`COC(=O)C(N)c1ccc(-c2cnc(N)c(-c3nnnn3-c3cccc(F)c3F)c2)cc1` (centres unmarked) [I-A-206]: the Ki is ≤ 100 nM.

`Nc1ncc(-c2cc3c(s2)CCNCC3)cc1-c1nnnn1-c1cccc(F)c1F` [I-A-430, 3-(1-(2,3-Difluorophenyl)-1H-tetrazol-5-yl)-5-(5,6,7,8-tetrahydro-4H-thieno[3,2-d]azepin-2-yl)pyridin-2-amine]: the inhibition constant Ki was ≤ 100 nM.

In turn, `Nc1ncc(C2=CCCNCC2)cc1-c1nnnn1-c1cccc(F)c1F` [I-A-646] came in with a Ki of 100 to 1000 nM.

As to `CC(=O)c1ccc(-c2cnc(N)c(-c3nnnn3-c3cccc(F)c3F)c2)cc1` [I-A-219], the Ki is ≤ 100 nM.

The compound `Nc1ncc(-c2cnn(C3CCNCC3)c2)cc1-n1nnnc1-c1cccc(F)c1F` [I-E-1] displayed a Ki of 100 to 1000 nM.

In turn, `CN1CCN(c2ccc(-c3cnc(N)c(-c4nn(C)cc4-c4cccc(Cl)c4Cl)c3)cc2)CC1` [I-B-21] yielded a Ki of 100 to 1000 nM.

As for `Nc1ncc(-c2ccn(C3CCNCC3)c2)cc1-c1nnnn1-c1cccc(Cl)c1F` [I-A-652], the inhibition constant (Ki) is ≤ 100 nM.

For the compound `Nc1ncc(C2=CCN(Cc3cccnc3)CC2)cc1-c1nnnn1-c1cccc(F)c1F` [I-A-644], the Ki fell in the range of 100 to 1000 nM.

With `Nc1ncc(-c2cccc([N+](=O)[O-])c2)cc1-c1nnnn1-c1cccc(F)c1F` [I-A-239], the inhibitory constant (Ki) is ≤ 100 nM.

In turn, `CN1CCN(c2ccc(-c3cnc(N)c(-c4nncn4-c4cccc(F)c4F)c3)cc2)CC1` [I-A-41] had a Ki of 100 to 1000 nM.

Turning to `Nc1ncc(-c2cnn(C3CCNCC3)c2)cc1-c1nnnn1-c1c(F)cccc1F` [I-A-628], the Ki is ≤ 100 nM.

Take `Nc1ncc(-c2ccc3c(c2)CC(=O)N3)cc1-c1nnnn1-c1cccc(F)c1F` [I-A-188]: the Ki was ≤ 100 nM.

For the compound `Nc1ncc(C2=CCN(C(=O)C3CCCNC3)CC2)cc1-c1nnnn1-c1cccc(F)c1F` (centres unmarked) [I-A-423], the inhibition constant Ki was ≤ 100 nM.

Regarding `Nc1ncc(-c2ccc(N3CCCC3)nc2)cc1-c1nnsc1-c1cccc(Cl)c1Cl` [I-C-4], the Ki lay within 100 to 1000 nM.

As for `Nc1ncc(C2=CCN(C(=O)OC3CCOC3)CC2)cc1-c1nnnn1-c1cccc(F)c1F` (centres unmarked) [I-A-520], the Ki was ≤ 100 nM.

`CN(C)Cc1ccc(-c2cnc(N)c(-c3nnnn3-c3cccc(F)c3F)c2)cc1` [I-A-63]: the inhibitory constant (Ki) is ≤ 100 nM.

`Nc1ncc(C2=CCNCC2)cc1-c1nnnn1-c1cccc(F)c1F` [I-A-525] showed a Ki of 100 to 1000 nM.

The compound `CC(C)c1ccc(-c2cnc(N)c(-c3nnnn3-c3cccc(F)c3F)c2)cc1` [I-A-237] displayed a Ki of 100 to 1000 nM.

Turning to `CCN1CCC(n2cc(-c3cnc(N)c(-c4nncn4-c4cccc(Cl)c4F)c3)cn2)CC1` [I-A-458], the Ki was ≤ 100 nM.

For `NC(=O)c1ccc(-c2cnc(N)c(-c3nnnn3-c3cccc(F)c3F)c2)cc1` [I-A-245], the Ki was ≤ 100 nM.

For the compound `Nc1ncc(-c2cnn([C@H]3CCNC3)c2)cc1-c1nnnn1-c1cccc(F)c1F` [I-A-412], the Ki was ≤ 100 nM.

Regarding `COCCOC(=O)N1CCC(n2cc(-c3cnc(N)c(-c4nnnn4-c4cccc(Cl)c4F)c3)cn2)CC1` [I-A-440], the inhibition constant (Ki) is ≤ 100 nM.

Turning to `Nc1ncc(-c2cc(C(=O)O)cs2)cc1-c1nnnn1-c1cccc(F)c1F` [I-A-185], the Ki is 100 to 1000 nM.

`CC(=O)Nc1ccc(-c2cnc(N)c(-c3nnnn3-c3cc(Cl)ccc3F)c2)cc1` [I-A-582]: the inhibitory constant (Ki) is 100 to 1000 nM.

On to `Nc1ncc(-c2ccc(NC(=O)CO)cc2)cc1-c1nnnn1-c1cccc(F)c1F` [I-A-338], for which the Ki was ≤ 100 nM.

With `Nc1ncc(-c2cnn(C3CC4CCC(C3)N4)c2)cc1-c1nnnn1-c1cccc(Cl)c1F` (centres unmarked) [I-A-528], the Ki was ≤ 100 nM.

Regarding `CN(C)Cc1ccc(-c2cnc(N)c(-c3nnnn3-c3cccc(F)c3F)c2)cc1F` [I-A-165], the Ki is ≤ 100 nM.

As to `Nc1ncc(-c2cnc3[nH]ccc3c2)cc1-c1nnnn1-c1cccc(Cl)c1Cl` [I-A-92], the Ki is ≤ 100 nM.

For `Nc1ncc(-c2ccc(CO)cc2)cc1-c1nncn1-c1cccc(Cl)c1Cl` [I-A-78], the Ki lay in the range of 100 to 1000 nM.

As to `Nc1ncc(-c2ccc(N3CCNCC3)cc2)cc1-c1nc2cccnc2n1-c1cccc(Cl)c1F` [I-D-16], the Ki was 100 to 1000 nM.

For `Nc1ncc(-c2cnn(C3CCN(CCF)CC3)c2)cc1-c1nncn1-c1cccc(Cl)c1F` [I-A-459], the inhibitory constant (Ki) is ≤ 100 nM.

For the compound `Nc1ncc(C2=CCN(C(=O)CC3CC3)CC2)cc1-c1nnnn1-c1cccc(F)c1F` [I-A-524], the Ki is ≤ 100 nM.

For `Cc1nc(-c2cc(-c3cccnc3)cnc2N)c(-c2cccc(Cl)c2Cl)o1` [I-C-6], the Ki was ≤ 100 nM.

For `Nc1ncc(-c2ccc(CN3CCCC3)cc2)cc1-c1nnnn1-c1cccc(Cl)c1F` [I-A-343], the Ki was ≤ 100 nM.

For `CC(=O)N1CCc2cc(-c3cnc(N)c(-c4nnnn4-c4cccc(F)c4F)c3)ccc21` [I-A-182], the inhibitory constant (Ki) is ≤ 100 nM.

Regarding `Nc1ncc(-c2cc(F)cc(F)c2)cc1-c1nnnn1-c1cccc(F)c1F` [I-A-288], the inhibition constant Ki lay in the range of 100 to 1000 nM.

For the compound `COCCOc1ccc(-c2cnc(N)c(-c3nnnn3-c3cccc(F)c3F)c2)cc1OCCOC` [I-A-354], the Ki was ≤ 100 nM.

The compound `Nc1ncc(-c2cnn(C(c3ccccc3)(c3ccccc3)c3ccccc3)c2)cc1-c1nnnn1-c1cccc(F)c1F` [I-A-365] came in with a Ki of 100 to 1000 nM.

For `Nc1ncc(-c2ccc3[nH]ncc3c2)cc1-c1nnnn1-c1cccc(F)c1F` [I-A-347], the Ki was ≤ 100 nM.

The compound `COCCOC(=O)Nc1cccc(-c2cnc(N)c(-c3nnnn3-c3cccc(F)c3F)c2)c1` [I-A-271] had a Ki of 100 to 1000 nM.

On to `Nc1ncc(-c2cnn([C@@H]3CCCNC3)c2)cc1-c1nnnn1-c1cccc(F)c1F` [I-A-417], for which the Ki was ≤ 100 nM.

As for `CSc1ccc(-c2cnc(N)c(-c3nnnn3-c3cccc(F)c3F)c2)cc1` [I-A-251], the Ki was ≤ 100 nM.

`CCCC(=O)Nc1ccc(-c2cnc(N)c(-c3nnnn3-c3cccc(F)c3F)c2)cc1` [I-A-195] registered an inhibition constant Ki of 100 to 1000 nM.

Regarding `CN1CCN(Cc2ccc(-c3cnc(N)c(-c4nnnn4-c4cccc(F)c4F)n3)cc2)CC1` [I-A-50], the Ki is ≤ 100 nM.

For the compound `Nc1ncc(-c2ccc(N3CCCC3)nc2)cc1-c1nnnn1-c1cccc(F)c1F` [I-A-64], the Ki is ≤ 100 nM.

Consider `CCOC(=O)N1CCc2cc(-c3cnc(N)c(-c4nnnn4-c4cccc(F)c4F)c3)sc2CC1` [I-A-480], for which the Ki was ≤ 100 nM.

In the case of `COc1ccc(-c2cnc(N)c(-c3nnnn3-c3cccc(F)c3F)c2)cc1` [I-A-222], the inhibition constant (Ki) was ≤ 100 nM.

As for `Nc1ncc(-c2cccnc2)cc1-c1nnnn1-c1c(F)ccc(F)c1Cl` [I-A-618], the Ki was in the range of 100 to 1000 nM.

`Nc1ncc(C2=CCN(C(=O)[C@@H]3CCC(=O)N3)CC2)cc1-c1nnnn1-c1cccc(F)c1F` [I-A-642]: the inhibitory constant (Ki) is ≤ 100 nM.

`Nc1ncc(-c2cnn(C3CCOCC3)c2)cc1-c1nnnn1-c1cccc(F)c1F` [I-A-396]: the Ki is ≤ 100 nM.

`Cc1ccc(Cl)cc1-n1nnnc1-c1cc(-c2ccc(CN(C)C)cc2)cnc1N` [I-A-579] had a Ki of 100 to 1000 nM.

On to `Nc1ncc(-c2cnn(C3CCOCC3)c2)cc1-c1nnnn1-c1cccc(Cl)c1F` [I-A-397], for which the Ki is ≤ 100 nM.

For the compound `Nc1ncc(-c2cnn([C@H]3CCNC3)c2)nc1-c1nnnn1-c1cccc(F)c1F` [I-A-536], the Ki was ≤ 100 nM.

Compound `CC(=O)c1ccc(-c2cnc(N)c(-c3nnnn3-c3cccc(F)c3F)c2)s1` [I-A-179] came in with a Ki of 100 to 1000 nM.

Turning to `COc1c(F)cccc1-n1nnnc1-c1cc(-c2ccc(CN(C)C)cc2)cnc1N` [I-A-589], the Ki was ≤ 100 nM.

`Nc1ncc(-c2ccc(CNC3CCC3)cc2)cc1-c1nnnn1-c1cccc(F)c1F` [I-A-151]: the Ki was ≤ 100 nM.

As for `CC(=O)Nc1cc(-c2cnc(N)c(-c3nnnn3-c3cccc(Cl)c3F)c2)ccc1CN1CCCC1` [I-A-398], the Ki is ≤ 100 nM.

With `Nc1ncc(-c2cnn([C@H]3CCCNC3)c2)nc1-c1nnnn1-c1cccc(F)c1F` [I-A-655], the Ki was ≤ 100 nM.

Turning to `CS(=O)(=O)Nc1ccc(-c2cnc(N)c(-c3nnnn3-c3cccc(F)c3F)c2)cc1` [I-A-353], the Ki was 100 to 1000 nM.

`Nc1ncc(-c2ccc(C3CCNCC3)cc2)cc1-c1nnnn1-c1cccc(F)c1F` [I-A-400]: the Ki was ≤ 100 nM.

Take `CCN1CCC(n2cc(-c3cnc(N)c(-c4nnnn4-c4cccc(F)c4F)c3)cn2)CC1` [I-A-435]: the Ki is ≤ 100 nM.

`Cc1c(Cl)cccc1-n1nnnc1-c1cc(-c2ccc(CN(C)C)cc2)cnc1N` [I-A-578] registered an inhibition constant Ki of 100 to 1000 nM.

As for `COc1ccc(OC)c(-c2cnc(N)c(-c3nnnn3-c3cccc(F)c3F)c2)c1` [I-A-306], the inhibition constant Ki lay in the range of 100 to 1000 nM.

Regarding `CC(=O)Nc1cccc(-c2cnc(N)c(-c3nnnn3-c3cc(F)cc(F)c3Cl)c2)c1` [I-A-570], the Ki lay in the range of 100 to 1000 nM.
